Experimental data from patent US20130005812A1, “METHOD FOR ALLEVIATING ALLERGIC ASTHMA AND ALLERGIC RESPONSE BY USING BITTER MELON COMPOSITION” (NATIONAL TAIWAN UNIVERSITY, priority 2011, published 2013).

Experiments:
Assay type in all cases: in vivo, BALB/c mice
OVA-sensitized mice [1] = assay: Leukocyte numbers in BALF; conditions: FIG. 3A-3B
Description: (§1) Inbred female BALB/c mice (4 weeks old) were purchased from the Laboratory Animal Center, National Taiwan University and housed in a room with constant temperature of 23±2° C. The animal room was kept on a 12-h light and 12-h dark cycle. The mice were housed and kept on free diet and water to acclimatize before feeding the experimental diet. Diet ingestions are recorded every 3˜4 days, and mice body weight were recorded every week. When mice were in 8 week old, the mice were sensitized and challenged to induce allergic reaction at week 8, 10 and 12 by an intraperitonal injection (i.p.) of antigen containing ovalbumin antigen and adjuvant (Imject® Alum). Blood samples were collected on two days before injection and on two weeks after last injection for analysis of OVA-specific antibodies. […] Change of mice airway resistance was measured after 13 days of feeding, and mice were sacrificed on day 16.
After mice were sacrificed, fur and skin in the mice neck were incised and muscle surrounding the trachea was tear open to expose the trachea. […] Total leukocytes were counted with a hemocytometer using trypan blue dye exclusion method. […] Two hundreds of leukocytes were counted on each slide, which includes four different cells, eosinophil, neutrophil, lymphocyte and monocyte.

OVA-sensitized mice [2] = assay: Cytokine, eotaxin and PGE2 level in BALF (ELISA); conditions: day 16; mean ± SD
Description: (§2) Inbred female BALB/c mice (4 weeks old) were purchased from the Laboratory Animal Center, National Taiwan University and housed in a room with constant temperature of 23±2° C. The animal room was kept on a 12-h light and 12-h dark cycle. The mice were housed and kept on free diet and water to acclimatize before feeding the experimental diet. Diet ingestions are recorded every 3˜4 days, and mice body weight were recorded every week. When mice were in 8 week old, the mice were sensitized and challenged to induce allergic reaction at week 8, 10 and 12 by an intraperitonal injection (i.p.) of antigen containing ovalbumin antigen and adjuvant (Imject® Alum). Blood samples were collected on two days before injection and on two weeks after last injection for analysis of OVA-specific antibodies. Mice were divided in five groups based on OVA-specific IgE antibody and body weight, namely OVA-oil group (the control group), OVA-BGP group (feed containing 5% of freeze dried bitter melon powder), OVA-CLN group (tube feeding containing 35 mg CLN), OVA-Pred (prednisolone, the positive control group), and PBS-oil (the non-sensitized group), respectively. Mice diet was based on AIN-76 formulation (feed composition referred to J. Nutri. 107: 1340-1384, 1977). Administration of steroid prednisolone by tube feeding started 4 days before AHR induction and last to the day sacrificed. After 4 days of feeding, mice were challenged with 5% aerosol of OVA solution, while the PBS-oil group was administered with aerosol PBS. Change of mice airway resistance was measured after 13 days of feeding, and mice were sacrificed on day 16.
After mice were sacrificed, fur and skin in the mice neck were incised and muscle surrounding the trachea was tear open to expose the trachea. A small hole was made on the trachea near the head with scissors to intubate tracheal tubing. After intubation, their lungs and airways were lavaged with […] of sterile PBS. Two ml of bronchoalveolar lavage fluid (BALF) was centrifuged at 1500 rpm for 7 mins at 4° C. The supernatant (BALF) was collected and stored at −80° C. for cytokine concentration determination. The cell pellet was washed with HBSS buffer twice and re-suspended in 10% FBS/RPMI medium. Total leukocytes were counted with a hemocytometer using trypan blue dye exclusion method. After the cell concentration was adjusted to 5×10^5 cell/ml, aliquots of 100 μl total cells were centrifuged with cytospin at 500 rpm for 2 mins and then stained with Liu A for 30 seconds. After excess stain was washed off and air dried, the cells were stained with Liu B for 5 seconds. Slides were air-dried and sealed with Arabic gum. […] Two hundreds of leukocytes were counted on each slide, which includes four different cells, eosinophil, neutrophil, lymphocyte and monocyte.
BD Pharmingen System was provided as an example. Cytokine concentration was determined by ABC (avidin-biotin conjugated system) ELISA method. Primary antobiody was added to the 96-microwell plate wells and incubated at 4° C. overnight. After incubation, plates were washed four times with PBST buffer. To block non-specific binding, block buffer were added to each well and the plates were incubated at room temperature for 1 h. After incubation, plates were washed five times with ELISA wash buffer. Appropriately diluted samples or standard solution were then added to the 96-microwell plate wells and the plates were incubated at room temperature for 2˜3 h. After incubation, plates were washed with buffer six times then secondary antibody for detection was added to each well. Plates were incubated for another 1 h. After incubation, plates were washed seven times with ELISA wash buffer. Streptavidin-HRP (horseradish peroxidase) was added to each well and the reaction was allowed to react for 30 mins. After reaction, the plates were washed with ELISA buffer eight times and then HRP-substrate solution was added to the 96-microwell plate wells. […]

[3] = Organ weight and relative organ weight of OVA-sensitized mice
Description: as §2
After 16 days of feeding, the absolute weight of heart of OVA-BGP treated mice was less than the OVA-oil treated mice. […] There was no difference between the OVA-CLN group and control group. […] The absolute weight and relative weight of lung of PBS-oil mice group were lower than sensitized mice groups.

[4] = Growth and feed intake of OVA-sensitized mice
Description: as §2
BALB/c mice were sensitized every other week for three times. Two weeks before the last sensitization mice were divided into five groups according to OVA-specific IgE and body weight, then different experimental diet were provided for 16 days. […] In the aspect of daily ingestion, no difference was observed among these mice groups.

OVA-sensitized mice [5] = assay: Airway hyperresponsiveness (Penh, methacholine challenge, whole-body plethysmograph); conditions: Mch challenge 12.5 mg/ml or higher; after 13 days feeding; FIG. 2
Description: as §1, with “Alum).” for “Alum). Blood samples were collected on two days before injection and on two weeks after last injection for analysis of OVA-specific antibodies.”, “16. […]” for “16.”
After an inhaled antigen challenge, airway resistance of the mice were tested the following day using Buxco system (Biosystem XA, Buxco Electronics Inc. Sharon, Conn., USA), in which the differential pressure transducer (Buxco) and preamplifier (MAX II, Buxco) were used to collect change information of mice respiratory and to calculate lung Penh value (Penh, enhanced pause). […] After excess aerosol was evacuated, an average Penh value per minute was recorded. […] The same challenge process was performed at each concentration, and an average Penh value per minute was recorded after 3 mins after each challenge. […]

[6] = test system: splenocytes of OVA-sensitized mice; assay: Cytokine secretion by OVA-specific stimulated splenocytes ex vivo; conditions: mean ± SD
Description: as §2
Mice were sacrificed and their spleens were aseptically removed and suspended in 3 cm incubation dish containing 3 ml TCM/RPMI solution. Spleen tissue was minced with rear end of syringe and the upper layer cell suspension was collected and placed in 15 ml centrifuge tube. Another 3 ml HBSS buffer was added to wash the dish and residual cells were collected. Cell suspensions were centrifuged at 1500 rpm for 10 mins Supernatant was discard and the precipitated cells were re-suspend in ACK lysing buffer. After 1 minute, HBSS buffer was added to the suspension and then centrifuged at 1500 rpm for 10 mins Cell pellet was washed with HBSS buffer for 3 times. 2 ml of TCM/RPMI medium was added to re-suspend the cells. Cell number was counted and adjusted to 1×10^7 cell/ml. 500 μl of the cell suspension was added to 48 well plates. […] After 48 hours incubation, supernatants were collected and stored at −80° C.
BD Pharmingen System was provided as an example. Cytokine concentration was determined by ABC (avidin-biotin conjugated system) ELISA method. Primary antobiody was added to the 96-microwell plate wells and incubated at 4° C. overnight. After incubation, plates were washed four times with PBST buffer. To block non-specific binding, block buffer were added to each well and the plates were incubated at room temperature for 1 h. After incubation, plates were washed five times with ELISA wash buffer. Appropriately diluted samples or standard solution were then added to the 96-microwell plate wells and the plates were incubated at room temperature for 2˜3 h. After incubation, plates were washed with buffer six times then secondary antibody for detection was added to each well. Plates were incubated for another 1 h. After incubation, plates were washed seven times with ELISA wash buffer. […] The plates were measured the absorbance at 405 nm by ELISA reader.

[7] = after 16 days feeding, mean ± SD

CCCC/C=C/C=C/C=C\CCCCCCCC(=O)O [OVA-CLN, Conjugated linolenic acid]
Eosinophils in BALF vs OVA-oil group (OVA-sensitized mice [1]): less eosinophils infiltration | Eotaxin in BALF (OVA-sensitized mice [2]): 27.3 ± 8.5 pg/mL | IL-1β in BALF (OVA-sensitized mice [2]): 21.0 ± 9.5 pg/mL | IL-4 in BALF (OVA-sensitized mice [2]): 39.1 ± 33.9 pg/mL | IL-5 in BALF (OVA-sensitized mice [2]): 326 ± 183 pg/mL | IL-6 in BALF (OVA-sensitized mice [2]): 12.2 ± 27.8 pg/mL | IL-13 in BALF (OVA-sensitized mice [2]): 254 ± 75 pg/mL | PGE2 in BALF (OVA-sensitized mice [2]): 17.2 ± 16.1 ng/mL | TNF-α in BALF (OVA-sensitized mice [2]): 64.5 ± 29.3 pg/mL | Heart absolute weight [3, 7]: 0.12 ± 0.02 g | Heart relative weight [3, 7]: 0.56 ± 0.06% | Kidney absolute weight [3, 7]: 0.29 ± 0.01 g | Kidney relative weight [3, 7]: 1.30 ± 0.05% | Liver absolute weight [3, 7]: 1.28 ± 0.15 g | Liver relative weight [3, 7]: 5.80 ± 0.38% | Lung absolute weight [3, 7]: 0.48 ± 0.08 g | Lung relative weight [3, 7]: 2.21 ± 0.46% | Spleen absolute weight [3, 7]: 0.080 ± 0.026 g | Spleen relative weight [3, 7]: 0.37 ± 0.12% | Initial Body weight ([4]; 14 week-old, before experimental feeding, mean ± SD): 22.7 ± 1.30 g | Final Body Weight ([4]; 16 week-old, after 16 days feeding, mean ± SD): 22.0 ± 1.52 g | Effect on mice growth (body weight) ([4]; 16 days feeding, in words): did not affect mice growth | Feed Intake ([4]; mean ± SD): 2.99 ± 0.31 g/day | Airway hyperresponsiveness (Penh) vs OVA-oil group (OVA-sensitized mice [5]): alleviation of AHR

C[C@]12C=CC(=O)C=C1CC[C@@H]1[C@@H]2[C@@H](O)C[C@@]2(C)[C@H]1CC[C@]2(O)C(=O)CO [OVA-Pred, prednisolone]
IFN-γ secretion by splenocytes [6]: 110 ± 50 pg/mL | IL-2 secretion by splenocytes [6]: 66.9 ± 20.9 pg/mL | IL-4 secretion by splenocytes [6]: 33.4 ± 14.5 pg/mL | IL-5 secretion by splenocytes [6]: 2.12 ± 1.85 ng/mL | IL-13 secretion by splenocytes [6]: 322 ± 118 pg/mL | Total leukocyte number in BALF vs OVA-oil group (OVA-sensitized mice [1]): less than those in the OVA-oil group | Relative weight of liver vs OVA-oil group ([3]; in words): significant lower | Airway hyperresponsiveness (Penh) vs OVA-oil group (OVA-sensitized mice [5]): alleviation of AHR
